In assay [1] the test system is Homo sapiens (human subject panel, olfactory perception). The assay is described as follows: perceived odor pleasantness rating (rating 0-100); higher = more pleasant. An outline of the steps: (§1)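 Across ten visits of 100 stimuli, 55 healthy human subjects aged 18–50 sniffed 1 mL of each molecule in paraffin oil in randomized order, at both high and low concentrations. The six lowest performers were excluded. Whenever a subject reported smelling a stimulus, they rated it on a computerized slider that started at 50 and had to be moved, and positions were converted to a 0–100 scale. Each familiarity, intensity and pleasantness figure is a mean across subjects.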

Assay [2] has the same test system. In words: perceived odor intensity rating (rating 0-100); higher = stronger perceived smell. An outline of the steps:
as §1

For assay [3] the test system is unchanged. The assay is described as follows: perceived odor familiarity rating (rating 0-100); higher = more familiar. The gist of the method:
as §1

Where [4] appears, read: odor dilution in paraffin oil: 1/1,000.
The mark [5] stands for this setting: odor dilution in paraffin oil: 1/100,000.
Setting [6] is: odor dilution in paraffin oil: 1/10.
[7] abbreviates: odor dilution in paraffin oil: 1/10,000,000.

± gives the standard deviation of the averaged measurements.

In the case of `CCOC(=O)CC(O)C(=O)OCC` (stereo not drawn) [Diethyl malate], the entries for the “perceived odor pleasantness rating” value in assay [1] (setting [4]) and in assay [1] (setting [5]) were 41.4 ± 24 and 55.2 ± 19, respectively. Besides, the “perceived odor intensity rating” value in assay [2] (setting [4]) was 24.6 ± 25; in assay [2] (setting [5]), 12.6 ± 17. The “perceived odor familiarity rating” value is 35.8 ± 28 in assay [3] (setting [4]) and 22.1 ± 26 in assay [3] (setting [5]).

For the compound `CCOC(=O)CC(=O)OCC` [Diethyl malonate], the “perceived odor pleasantness rating” value in assay [1] (setting [4]) worked out at 71.7 ± 17; in assay [1] (setting [5]), 61 ± 23. The “perceived odor intensity rating” value in assay [2] (setting [4]) is 57.1 ± 27; in assay [2] (setting [5]), 27.4 ± 26. The “perceived odor familiarity rating” value was 64.3 ± 24 in assay [3] (setting [4]) and 42.8 ± 28 in assay [3] (setting [5]).

On to `CCOC(=O)CCCCCCCCC(=O)OCC` [Diethyl sebacate], for which the “perceived odor pleasantness rating” value in assay [1] (setting [6]) was determined as 71.3 ± 21; in assay [1] (setting [4]), 55.5 ± 26. For the same compound, the “perceived odor intensity rating” value amounted to 54.7 ± 27 in assay [2] (setting [6]) and 21.4 ± 25 in assay [2] (setting [4]). Moreover, the “perceived odor familiarity rating” value in assay [3] (setting [6]) was 64.7 ± 28; in assay [3] (setting [4]) it was 31.3 ± 31.

Consider `CCSCC` [Diethyl sulfide], for which the figures for the “perceived odor pleasantness rating” value in assay [1] (setting [5]) and in assay [1] (setting [7]) were 24.2 ± 22 and 43.8 ± 23, respectively. Besides, the figures for the “perceived odor intensity rating” value in assay [2] (setting [5]) and in assay [2] (setting [7]) were 62.5 ± 32 and 19.7 ± 27, respectively. In addition, the “perceived odor familiarity rating” value in assay [3] (setting [5]) turned out to be 37.5 ± 27; in assay [3] (setting [7]) it was 42 ± 27.

Take `O=C1CCc2ccccc2O1` [Dihydrocoumarin]: the “perceived odor pleasantness rating” value in assay [1] (setting [4]) was 64.8 ± 23; in assay [1] (setting [5]), 64.6 ± 22. Also, the “perceived odor intensity rating” value in assay [2] (setting [4]) stood at 70.9 ± 19; in assay [2] (setting [5]), 35.5 ± 30. In addition, the entries for the “perceived odor familiarity rating” value in assay [3] (setting [4]) and in assay [3] (setting [5]) were 59.7 ± 29 and 42.2 ± 30, respectively.

As for `CCCCCC1=C(C)CCC1=O` [Dihydrojasmone], the “perceived odor pleasantness rating” value was found to be 44.5 ± 26 in assay [1] (setting [4]) and 48.5 ± 24 in assay [1] (setting [5]). For the same compound, the “perceived odor intensity rating” value was determined as 62.7 ± 28 in assay [2] (setting [4]) and 44.3 ± 28 in assay [2] (setting [5]). Moreover, the “perceived odor familiarity rating” value in assay [3] (setting [4]) turned out to be 48.1 ± 28; in assay [3] (setting [5]), 42.9 ± 29.

As to `CNc1ccccc1C(=O)OC` [Dimethyl anthranilate], the “perceived odor pleasantness rating” value in assay [1] (setting [4]) amounted to 63.1 ± 23; in assay [1] (setting [5]), 53.3 ± 26. Also, the entries for the “perceived odor intensity rating” value in assay [2] (setting [4]) and in assay [2] (setting [5]) were 44.2 ± 31 and 17.1 ± 21, respectively. The “perceived odor familiarity rating” value in assay [3] (setting [4]) was 53 ± 28; in assay [3] (setting [5]), 31.2 ± 29.

For `CSSSC` [Dimethyl trisulfide (replicate)], the “perceived odor pleasantness rating” value was found to be 18.4 ± 22 in assay [1] (setting [5]) and 26.5 ± 23 in assay [1] (setting [7]). The “perceived odor intensity rating” value is 80.1 ± 22 in assay [2] (setting [5]) and 62.9 ± 29 in assay [2] (setting [7]). The “perceived odor familiarity rating” value in assay [3] (setting [5]) worked out at 59.2 ± 32; in assay [3] (setting [7]) it was 50.5 ± 33.

For the compound `CSSSC` [Dimethyl trisulfide], the “perceived odor pleasantness rating” value in assay [1] (setting [5]) turned out to be 22.3 ± 24; in assay [1] (setting [7]), 28.1 ± 25. Moreover, the “perceived odor intensity rating” value is 77.6 ± 23 in assay [2] (setting [5]) and 63 ± 28 in assay [2] (setting [7]). In addition, the “perceived odor familiarity rating” value amounted to 52.5 ± 34 in assay [3] (setting [5]) and 49.1 ± 34 in assay [3] (setting [7]).

With `c1ccc(Oc2ccccc2)cc1` [Diphenyl ether], the “perceived odor pleasantness rating” value in assay [1] (setting [4]) was found to be 49.9 ± 26; in assay [1] (setting [5]) it was 46.5 ± 22. Also, the “perceived odor intensity rating” value in assay [2] (setting [4]) was 55.1 ± 29; in assay [2] (setting [5]), 27 ± 28. Further, the “perceived odor familiarity rating” value came out at 40.4 ± 28 in assay [3] (setting [4]) and 42.4 ± 29 in assay [3] (setting [5]).

For `CCOC(=O)c1ccco1` [Ethyl 2-furoate], the “perceived odor pleasantness rating” value was determined as 32 ± 28 in assay [1] (setting [6]) and 42.8 ± 24 in assay [1] (setting [4]). The entries for the “perceived odor intensity rating” value in assay [2] (setting [6]) and in assay [2] (setting [4]) were 87.4 ± 14 and 40.3 ± 34, respectively. The “perceived odor familiarity rating” value in assay [3] (setting [6]) was 47.9 ± 33; in assay [3] (setting [4]), 36.6 ± 29.

In the case of `CCOC(=O)C(C)CC` (stereo not drawn) [Ethyl 2-methylbutyrate], the “perceived odor pleasantness rating” value came to 75.1 ± 24 in assay [1] (setting [4]) and 77.9 ± 20 in assay [1] (setting [5]). Moreover, the “perceived odor intensity rating” value in assay [2] (setting [4]) was determined as 76.5 ± 18; in assay [2] (setting [5]), 55.4 ± 28. In addition, the “perceived odor familiarity rating” value in assay [3] (setting [4]) worked out at 69.6 ± 30; in assay [3] (setting [5]), 67.3 ± 25.

As for `CCCC(C)C(=O)OCC` (stereo not drawn) [Ethyl 2-methylpentanoate (replicate)], the “perceived odor pleasantness rating” value in assay [1] (setting [4]) came out at 72.2 ± 18; in assay [1] (setting [5]), 64.9 ± 20. Further, the “perceived odor intensity rating” value was 52.1 ± 29 in assay [2] (setting [4]) and 50.5 ± 29 in assay [2] (setting [5]). Moreover, the “perceived odor familiarity rating” value in assay [3] (setting [4]) was found to be 59.6 ± 31; in assay [3] (setting [5]), 52 ± 27.

Take `CCCC(C)C(=O)OCC` (stereo not drawn) [Ethyl 2-methylpentanoate]: the “perceived odor pleasantness rating” value in assay [1] (setting [4]) turned out to be 76.8 ± 20; in assay [1] (setting [5]), 64.9 ± 21. The “perceived odor intensity rating” value in assay [2] (setting [4]) came to 67.9 ± 22; in assay [2] (setting [5]) it was 49.4 ± 24. Also, the figures for the “perceived odor familiarity rating” value in assay [3] (setting [4]) and in assay [3] (setting [5]) were 67.2 ± 24 and 50.8 ± 28, respectively.

Turning to `CCOC(=O)CCSCc1ccco1` [Ethyl 3-(furfurylthio)propionate], the “perceived odor pleasantness rating” value in assay [1] (setting [5]) was found to be 19.6 ± 22; in assay [1] (setting [7]), 32.3 ± 24. Moreover, the “perceived odor intensity rating” value in assay [2] (setting [5]) was found to be 77.8 ± 18; in assay [2] (setting [7]), 58.7 ± 28. The “perceived odor familiarity rating” value in assay [3] (setting [5]) is 50.2 ± 32; in assay [3] (setting [7]), 41.6 ± 32.

Take `CCOC(=O)C1OC1(C)c1ccccc1` (stereo not drawn) [Ethyl 3-methyl-3-phenylglycidate]: the “perceived odor pleasantness rating” value was 59.9 ± 25 in assay [1] (setting [5]) and 53.4 ± 23 in assay [1] (setting [7]). For the same compound, the “perceived odor intensity rating” value was found to be 48.2 ± 32 in assay [2] (setting [5]) and 13.3 ± 28 in assay [2] (setting [7]). The “perceived odor familiarity rating” value in assay [3] (setting [5]) is 48 ± 30; in assay [3] (setting [7]), 28.4 ± 28.

Regarding `CCCCC(=O)OCC` [Ethyl Valerate], the “perceived odor pleasantness rating” value in assay [1] (setting [4]) worked out at 71.4 ± 26; in assay [1] (setting [5]) it was 73.6 ± 20. Moreover, the entries for the “perceived odor intensity rating” value in assay [2] (setting [4]) and in assay [2] (setting [5]) were 75.2 ± 22 and 50.6 ± 28, respectively. Moreover, the “perceived odor familiarity rating” value came out at 67.1 ± 33 in assay [3] (setting [4]) and 58.9 ± 30 in assay [3] (setting [5]).

Take `CCOc1cc(C=O)ccc1O` [Ethyl Vanillin]: the “perceived odor pleasantness rating” value amounted to 84.3 ± 20 in assay [1] (setting [6]) and 83.9 ± 17 in assay [1] (setting [4]). In addition, the “perceived odor intensity rating” value is 75.3 ± 20 in assay [2] (setting [6]) and 71 ± 26 in assay [2] (setting [4]). Also, the “perceived odor familiarity rating” value stood at 79.8 ± 22 in assay [3] (setting [6]) and 77.3 ± 26 in assay [3] (setting [4]).
